According to ChEMBL document CHEMBL1148806 (J Med Chem, 2007):
Calls of active or inactive are those of the source. The calls are words filed in the database; no cut-off is given here.

Tests used:
[1] = target: T1, Beta-2 adrenergic receptor (Cavia porcellus, UniProt Q8K4Z4)
[2] = target: T2, Beta-2 adrenergic receptor (Rattus norvegicus, UniProt P10608); experiment: Vasodilating activity against phenylephrine-induced contractions in rat thoracic aorta
Liver microsomes [3] = experiment: Antioxidant activity in rat hepatic microsomal membrane at 1 mM; type: functional; conditions: Microsome
[4] = Effect on nitric oxide release in phosphate buffer at pH 7.4 in presence of cysteine at 100 uM; type: functional
[5] = target: Beta-2 adrenergic receptor (Rattus norvegicus) (UniProt P10608); type: functional, tissue-based; conditions: Thoracic aorta, 100 uM
Sequence of Beta-2 adrenergic receptor (Rattus norvegicus) (P10608 whole entry, looked up): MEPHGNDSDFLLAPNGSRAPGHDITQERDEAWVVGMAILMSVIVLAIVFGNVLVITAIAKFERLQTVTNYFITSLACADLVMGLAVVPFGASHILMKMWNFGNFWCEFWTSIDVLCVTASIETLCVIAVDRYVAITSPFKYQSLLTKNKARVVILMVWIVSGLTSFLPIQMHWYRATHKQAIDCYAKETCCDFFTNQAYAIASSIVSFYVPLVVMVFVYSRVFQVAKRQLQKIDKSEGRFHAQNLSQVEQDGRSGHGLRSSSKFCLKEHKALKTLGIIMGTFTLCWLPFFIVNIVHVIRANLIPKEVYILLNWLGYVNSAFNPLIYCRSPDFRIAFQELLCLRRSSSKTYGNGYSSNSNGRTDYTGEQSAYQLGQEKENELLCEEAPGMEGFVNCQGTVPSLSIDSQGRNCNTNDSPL

[6] = target: T2, Beta-2 adrenergic receptor
Description: Vasodilating activity against phenylephrine-induced contraction in rat thoracic aorta in presence of 1H-[1,2,4]oxadiazolo-[4,3-a]quinoxalin-1-one

Liver microsomes [7] = experiment: Antioxidant activity in rat hepatic microsomal membrane
[8] = target: Beta-2 adrenergic receptor (Cavia porcellus) (UniProt Q8K4Z4); experiment: Agonist activity at adrenergic beta-2 receptor in guinea pig tracheal rings assessed as myorelaxing activity on carbachol-induced contraction at 100 uM; type: functional; set-up: scale not given: the % may be the effect or the level left
Sequence of Beta-2 adrenergic receptor (Cavia porcellus) (Q8K4Z4 whole entry, looked up): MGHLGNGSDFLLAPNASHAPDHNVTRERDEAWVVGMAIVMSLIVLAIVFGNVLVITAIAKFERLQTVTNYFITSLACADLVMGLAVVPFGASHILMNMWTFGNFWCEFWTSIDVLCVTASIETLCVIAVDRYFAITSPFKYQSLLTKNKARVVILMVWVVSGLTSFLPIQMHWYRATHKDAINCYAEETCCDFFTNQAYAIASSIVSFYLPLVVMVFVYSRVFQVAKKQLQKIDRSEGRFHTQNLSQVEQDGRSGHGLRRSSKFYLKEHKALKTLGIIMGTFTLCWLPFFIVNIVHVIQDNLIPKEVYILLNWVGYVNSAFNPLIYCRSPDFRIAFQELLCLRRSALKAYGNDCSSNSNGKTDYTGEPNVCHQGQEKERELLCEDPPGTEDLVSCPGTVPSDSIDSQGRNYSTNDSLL

[9] = target: Beta-2 adrenergic receptor (Rattus norvegicus) (UniProt P10608); experiment: Vasodilating activity in rat thoracic aorta on phenylephrine-induced contraction at 100 uM; type: functional, tissue-based
[10] = target: T1, Beta-2 adrenergic receptor; remark: listed apart in the source
Description: Agonist activity at adrenergic beta-2 receptor in guinea pig tracheal rings assessed as myorelaxing activity on carbachol-induced contraction in presence of 1H-[1,2,4]oxadiazolo-[4,3-a]quinoxalin-1-one

[11] = target: T1, Beta-2 adrenergic receptor; remark: listed apart in the source

T2 sequence (P10608 whole entry): as the sequence (P10608 whole entry, looked up) above
T1 sequence (Q8K4Z4 whole entry): as the sequence (Q8K4Z4 whole entry, looked up) above

With `NC(=O)c1c(CO)no[n+]1[O-]` the EC50 [1] was 86 µM, the EC50 [2] was 6.3 µM and the Activity (Liver microsomes [3]) was “inactive”. For the same molecule, the Activity [4] was 12% and the Activity [5] was under 50%.

With `CCOc1no[n+]([O-])c1S(=O)(=O)c1ccccc1` the EC50 [1] was 2.3 µM, the EC50 [6] was 1.2 µM and the EC50 [2] was 0.012 µM. It also gave an IC50 (Liver microsomes [7]) of 110 µM and an Activity [4] of 36%.

In the case of `Cc1c(CO)no[n+]1[O-]`, the Activity [8] is reported as under 50%, the Activity (Liver microsomes [3]) is reported as “inactive” and the Activity [4] is reported as under 1%. It also gave an Activity [9] of under 50%.

With `CC(Cc1ccc(OCc2no[n+]([O-])c2C(N)=O)cc1)NCC(O)c1cc(O)cc(O)c1` (racemic) [listing 1 of 2 here] the EC50 [1] was 1 µM, the EC50 [10] was 1.1 µM and the EC50 [6] was 16 µM. The EC50 [2] was 1.2 µM.

Work on `CC(Cc1ccc(OCc2no[n+]([O-])c2C(N)=O)cc1)NCC(O)c1cc(O)cc(O)c1` (racemic) [listing 2 of 2 here] yielded an Activity [4] of 10.4%.

`CC(Cc1ccc(Oc2no[n+]([O-])c2S(=O)(=O)c2ccccc2)cc1)NCC(O)c1cc(O)cc(O)c1` (stereo in doubt; 15a) [listing 1 of 2 here] gave an EC50 [1] of 0.018 µM, an EC50 [10] of 0.017 µM and an EC50 [6] of 0.86 µM. For the same molecule, the EC50 [2] was 0.014 µM and the IC50 (Liver microsomes [7]) was 13.5 µM.

`CC(Cc1ccc(Oc2no[n+]([O-])c2S(=O)(=O)c2ccccc2)cc1)NCC(O)c1cc(O)cc(O)c1` (stereo in doubt; 15a) [listing 2 of 2 here] gave an Activity [4] of 28.4%.

For `CC(Cc1ccc(Oc2no[n+]([O-])c2S(=O)(=O)c2ccccc2)cc1)NCC(O)c1cc(O)cc(O)c1` (stereo in doubt; 15b) [listing 1 of 2 here], the EC50 [1] was 0.25 µM, the EC50 [10] was 0.44 µM and the EC50 [6] was 1.3 µM. For the same molecule, the EC50 [2] was 0.014 µM.

Work on `CC(Cc1ccc(Oc2no[n+]([O-])c2S(=O)(=O)c2ccccc2)cc1)NCC(O)c1cc(O)cc(O)c1` (stereo in doubt; 15b) [listing 2 of 2 here] yielded an Activity [4] of 27.5%.

With `CC(Cc1ccc(Oc2nonc2S(=O)(=O)c2ccccc2)cc1)NCC(O)c1cc(O)cc(O)c1` (stereo in doubt; 16a) the EC50 [1] was 0.039 µM and the IC50 (Liver microsomes [7]) was 57 µM.

`CC(Cc1ccc(Oc2nonc2S(=O)(=O)c2ccccc2)cc1)NCC(O)c1cc(O)cc(O)c1` (stereo in doubt; 16b) gave an EC50 [11] of 0.039 µM.

Work on `CC(Cc1ccc(OCc2no[n+]([O-])c2C(N)=O)cc1)NCC(O)c1cc(O)cc(O)c1` (stereo in doubt; 34a) [listing 1 of 2 here] yielded an EC50 [1] of 0.11 µM, an EC50 [10] of 0.13 µM and an EC50 [6] of 14 µM. The EC50 [2] was 1.2 µM and the IC50 (Liver microsomes [7]) was 156 µM.

With `CC(Cc1ccc(OCc2no[n+]([O-])c2C(N)=O)cc1)NCC(O)c1cc(O)cc(O)c1` (stereo in doubt; 34a) [listing 2 of 2 here] the Activity [4] was 11.5%.

Molecule `CC(Cc1ccc(OCc2nonc2C(N)=O)cc1)NCC(O)c1cc(O)cc(O)c1` (stereo in doubt; 35a) has an EC50 [1] of 0.029 µM and an IC50 (Liver microsomes [7]) of 286 µM.

Work on `CC(Cc1ccc(OCc2nonc2C(N)=O)cc1)NCC(O)c1cc(O)cc(O)c1` (stereo in doubt; 35b) yielded an EC50 [1] of 0.17 µM.

Molecule `Cc1c(COc2ccc(CC(C)NCC(O)c3cc(O)cc(O)c3)cc2)no[n+]1[O-]` (stereo in doubt; 36a) [listing 1 of 2 here] has an EC50 [1] of 0.22 µM, an EC50 [10] of 0.23 µM and an EC50 [2] of 18 µM. For the same molecule, the IC50 (Liver microsomes [7]) was 298 µM.

Work on `Cc1c(COc2ccc(CC(C)NCC(O)c3cc(O)cc(O)c3)cc2)no[n+]1[O-]` (stereo in doubt; 36a) [listing 2 of 2 here] yielded an Activity [4] of under 1% and an Activity [5] of under 50%.

Work on `Cc1c(COc2ccc(CC(C)NCC(O)c3cc(O)cc(O)c3)cc2)no[n+]1[O-]` (stereo in doubt; 36b) [listing 1 of 2 here] yielded an EC50 [1] of 1.3 µM, an EC50 [10] of 1.2 µM and an EC50 [2] of 20 µM.

In the case of `Cc1c(COc2ccc(CC(C)NCC(O)c3cc(O)cc(O)c3)cc2)no[n+]1[O-]` (stereo in doubt; 36b) [listing 2 of 2 here], the Activity [4] is reported as under 1% and the Activity [5] is reported as under 50%.

`Cc1nonc1COc1ccc(CC(C)NCC(O)c2cc(O)cc(O)c2)cc1` (stereo in doubt; 37a) showed an EC50 [1] of 0.11 µM and an IC50 (Liver microsomes [7]) of 123 µM.

`Cc1nonc1COc1ccc(CC(C)NCC(O)c2cc(O)cc(O)c2)cc1` (stereo in doubt; 37b) gave an EC50 [1] of 2.2 µM.
